In general, IC50 refers to the concentration that gives 50% inhibition.

Activity calls are given as the source filed them. The rule behind the calls is not given here.

This note sets out measurements from ChEMBL document CHEMBL5131471, “Design, synthesis and mechanism studies of novel dual PARP1/BRD4 inhibitors against pancreatic cancer” (Eur J Med Chem, 2022).

Data set [1] can be described thus: Toxicity in nude mouse xenografted with human SW1990 cells assessed as lung damage at 15 mg/kg, ip administered for 28 days in presence of 45 mg/kg Olaparib by H and E staining based fluorescence microscopic analysis. Format: organism-based. As to conditions: in vivo, 672 h, time 28 day. A general note: Xenograft models place foreign cells or tissue in a host animal.

For data set [2], the system named is SW1990. Briefly: Induction of cell cycle arrest in human SW1990 cells assessed as accumulation of cells at G0/G1 phase at 4 uM incubated for 4 days by propidium iodide staining based flow cytometry (reference value: 64.79%). Format: functional. As to conditions: time 4 day.
Data set [3] in a line: Toxicity in nude mouse xenografted with human SW1990 cells assessed as heart damage at 15 mg/kg, ip administered for 28 days in presence of 45 mg/kg Olaparib by H and E staining based fluorescence microscopic analysis. Format: organism-based. The following applies: in vivo, 672 h, time 28 day.
The nature of data set [4]: Toxicity in nude mouse xenografted with human SW1990 cells assessed as kidney damage at 15 mg/kg, ip administered for 28 days by H and E staining based fluorescence microscopic analysis. Format: organism-based. As to conditions: in vivo, 672 h, time 28 day.
Data set [5] relates to SW1990. As to the kind of experiment: Induction of DNA damage in human SW1990 cells assessed as increase in tail DNA at 1 uM incubated for 4 days in presence of 3 uM Olaparib by comet assay. Format: functional, cell-based. As to conditions: time 4.0 day.
Data set [6] can be described thus: Toxicity in nude mouse xenografted with human SW1990 cells assessed as spleen damage at 15 mg/kg, ip administered for 28 days in presence of 45 mg/kg Olaparib by H and E staining based fluorescence microscopic analysis. Format: organism-based. The following applies: in vivo, 672 h, time 28 day.
Data set [7] concerns SW1990. Briefly: Effect on TOPBP1 gene expression in human SW1990 cells at 1 uM in presence of Olaparib by Q-PCR analysis. Format: functional, cell-based.
For data set [8], the system named is SW1990. As to the kind of experiment: Effect on CCNB1 gene expression in human SW1990 cells at 4 uM by Q-PCR analysis. Format: functional, cell-based.
For data set [9], the system named is SW1990. As to the kind of experiment: Induction of cell cycle arrest in human SW1990 cells assessed as accumulation of cells at G2/M phase at 1 uM incubated for 4 days in presence of 3 uM Olaparib by propidium iodide staining based flow cytometry (reference value: 5.89%). Format: functional. As to conditions: time 4 day. A general note: In flow cytometry, cells or beads pass a laser one at a time.

The test system of data set [10] is SW1990. As to the kind of experiment: Effect on CCNB1 gene expression in human SW1990 cells at 1 uM in presence of Olaparib by Q-PCR analysis. Format: functional, cell-based.
Data set [11] in a line: Toxicity in nude mouse xenografted with human SW1990 cells assessed as spleen damage at 30 mg/kg, ip administered for 28 days by H and E staining based fluorescence microscopic analysis. As to conditions: in vivo, 672 h, time 28 day. Format: organism-based.
Data set [12] concerns MDA-MB-231. As to the kind of experiment: Antiproliferative activity against BRCA-proficient human MDA-MB-231 cells assessed as inhibition of cell growth measured after 7 days by MTT assay. Format: functional, cell-based. As to conditions: MDA-MB-231, 168 h. (In general: Formazan colour is commonly taken as a measure of viable cells.)
For data set [13], the system named is Mus musculus. Briefly: Inhibition of CCND1 expression in nude mouse xenografted with human SW1990 cells at 30 mg/kg, ip measured after 4 days by Western blot analysis. Format: functional, organism-based. As to conditions: time 4.0 day.
Data set [14] deals with SW1990. Briefly: Inhibition of CDC25B protein expression in human SW1990 cells at 1 to 2 uM measured after 4 days by Western blot analysis. The following applies: dose 1-2 µM, time 4.0 day. Format: functional, cell-based.
For data set [15], the system named is Mus musculus. Briefly: Inhibition of homologous recombinant repair in nude mouse xenografted with human SW1990 cells assessed as reversal of olaparib-induced BRCA1 expression at 30 mg/kg, ip measured after 4 days by Western blot analysis. Format: functional, organism-based. As to conditions: time 4.0 day.
Data set [16] concerns Mus musculus. As to the kind of experiment: Inhibition of CDK1 expression in nude mouse xenografted with human SW1990 cells at 30 mg/kg, ip measured after 4 days by Western blot analysis. Format: functional, organism-based. As to conditions: time 4.0 day.
Data set [17] concerns SW1990. Briefly: Induction of cell cycle arrest in human SW1990 cells assessed as accumulation of cells at G0/G1 phase at 1 uM incubated for 4 days by propidium iodide staining based flow cytometry (reference value: 64.79%). Format: functional. As to conditions: time 4 day.
The subject of data set [18] is SW1990. As to the kind of experiment: Induction of apoptosis in human SW1990 cells assessed as necrotic cells at 2 uM measured after 4 days by Annexin V-FITC and propidium iodide staining based flow cytometry (reference value: 2.45%). The following applies: time 4 day. Format: functional.
Data set [19] relates to SW1990. Briefly: Inhibition of CCNB1 protein expression in human SW1990 cells at 1 to 2 uM measured after 4 days by Western blot analysis. Format: functional, cell-based. The following applies: dose 1-2 µM, time 4.0 day.
Data set [20] deals with SW1990. As to the kind of experiment: Effect on CCNB1 gene expression in human SW1990 cells at 1 to 2 uM by Q-PCR analysis. Format: functional, cell-based. The following applies: dose 1-2 µM.
The subject of data set [21] is SW1990. Briefly: Effect on CDC25A gene expression in human SW1990 cells at 1 to 2 uM by Q-PCR analysis. Format: functional, cell-based. As to conditions: dose 1-2 µM.
The nature of data set [22]: Toxicity in nude mouse xenografted with human SW1990 cells assessed as liver damage at 30 mg/kg, ip administered for 28 days by H and E staining based fluorescence microscopic analysis. Format: organism-based. The following applies: in vivo, 672 h, time 28 day.
For data set [23], the system named is CAPAN-1. As to the kind of experiment: Antiproliferative activity against human CAPAN-1 cells assessed as inhibition of cell growth measured after 4 days by MTT assay. Format: functional, cell-based. The following applies: CAPAN-1, 96 h.
Data set [24] has as its system SW1990. As to the kind of experiment: Upregulation of FOXM1 expression in human SW1990 cells at 6 uM measured after 4 days by Western blot analysis. Format: functional, cell-based. The following applies: time 4.0 day.
Data set [25] has as its system Mus musculus. Briefly: Upregulation of E2F2 expression in nude mouse xenografted with human SW1990 cells at 45 mg/kg, ip measured after 4 days by Western blot analysis. Format: functional, organism-based. As to conditions: time 4.0 day.
In data set [26] the test system is SW1990. As to the kind of experiment: Effect on CDC25A gene expression in human SW1990 cells at 6 uM by Q-PCR analysis. Format: functional, cell-based.
In data set [27] the test system is SW1990. Briefly: Effect on MDC1 gene expression in human SW1990 cells at 6 uM by Q-PCR analysis. Format: functional, cell-based.
In data set [28] the test system is SW1990. As to the kind of experiment: Induction of apoptosis in human SW1990 cells assessed as early apoptotic cells at 6 uM measured after 4 days by Annexin V-FITC and propidium iodide staining based flow cytometry (reference value: 1.62%). Format: functional. As to conditions: time 4 day.
Data set [29] has as its system SW1990. As to the kind of experiment: Upregulation of CDC25B expression in human SW1990 cells at 6 uM measured after 4 days by Western blot analysis. As to conditions: time 4.0 day. Format: functional, cell-based.
For data set [30], the system named is Mus musculus. Briefly: Upregulation of CDC25B expression in nude mouse xenografted with human SW1990 cells at 45 mg/kg, ip measured after 4 days by Western blot analysis. Format: functional, organism-based. As to conditions: time 4.0 day.
The subject of data set [31] is SW1990. As to the kind of experiment: Upregulation of CCNB1 expression in human SW1990 cells at 6 uM measured after 4 days by Western blot analysis. Format: functional, cell-based. As to conditions: time 4.0 day.
For data set [32], the system named is Mus musculus. As to the kind of experiment: Upregulation of CCND1 expression in nude mouse xenografted with human SW1990 cells at 45 mg/kg, ip measured after 4 days by Western blot analysis. Format: functional, organism-based. As to conditions: time 4.0 day.
For data set [33], the system named is SW1990. Briefly: Induction of DNA damage in human SW1990 cells assessed as increase in tail DNA at 6 uM incubated for 4 days by comet assay. Format: functional, cell-based. As to conditions: time 4.0 day.
Data set [34] concerns Mus musculus. As to the kind of experiment: Upregulation of CCNB1 expression in nude mouse xenografted with human SW1990 cells at 45 mg/kg, ip measured after 4 days by Q-PCR analysis. Format: functional, organism-based. As to conditions: time 4.0 day.
Data set [35] can be described thus: Toxicity in nude mouse xenografted with human SW1990 cells assessed as kidney damage at 45 mg/kg, ip administered for 28 days by H and E staining based fluorescence microscopic analysis. Format: organism-based. The following applies: in vivo, 672 h, time 28 day.
The nature of data set [36]: Toxicity in nude mouse xenografted with human SW1990 cells assessed as heart damage at 45 mg/kg, ip administered for 28 days by H and E staining based fluorescence microscopic analysis. Format: organism-based. The following applies: in vivo, 672 h, time 28 day.
Data set [37] deals with SW1990. As to the kind of experiment: Effect on Rad51 gene expression in human SW1990 cells at 6 uM by Q-PCR analysis. Format: functional, cell-based.
Data set [38] concerns SW1990. As to the kind of experiment: Induction of Rad51 accumulation in nucleus of human SW1990 cells at 6 uM measured after 4 days by Western blot analysis. Format: functional, cell-based. As to conditions: time 4.0 day.

`Cc1sc2c(c1C)C(c1ccc(Cl)cc1)=N[C@@H](CC(=O)OC(C)(C)C)c1nnc(C)n1-2`: the Activity entry in data set [1] is listed as “Non-Toxic”; in data set [2], 75.06%; in [3] it was “Non-Toxic”; in [4] it was “Non-Toxic”; in data set [6], “Non-Toxic”; in data set [9], 9.14%. The outcome in [5], in [7], in [8] and in data set [10] was Active.
`Cc1noc(C)c1-c1ccc2c(c1)C(c1ccccc1)N(Cc1nc3c(C(N)=O)cccc3[nH]1)C(=O)N2C` (stereo not drawn): the Activity entry in [11] was “Non-Toxic”; in data set [17], 74.9%; in data set [18] it was 3.52%; in [22], “Non-Toxic”. The IC50 in [12] turned out to be 140 nM; in [23] it was 1710 nM. Moreover, the inhibition result in [13], in data set [14], in data set [15], in data set [16] and in data set [19] was “Active” in each case. The outcome in data set [20] and in data set [21] was Active.
Turning to `O=C(c1cc(Cc2n[nH]c(=O)c3ccccc23)ccc1F)N1CCN(C(=O)C2CC2)CC1` [OLAPARIB], the result in data set [24], in [25], in data set [26], in data set [27], in data set [29] and in data set [30] was Active. The result in [31], in [32], in data set [33], in [34], in [37] and in [38] was Active. For the same compound, the figures for the Activity in data set [28], in data set [35] and in data set [36] were 1.84%, “Non-Toxic” and “Non-Toxic”, respectively.
